Measured values from US11852970B2, “Material for lithography, production method therefor, composition for lithography, pattern formation method, compound, resin, and method for purifying the compound or the resin” (Mitsubishi Gas Chemical Company, Inc., priority 2015, dated 2023).

Assay: Safe solvent solubility test of compound
Assay type: physicochemical
Conditions: amount of dissolution in propylene glycol monomethyl ether acetate at 23° C., ultrasonic 30 minutes, visual
Method: The solubility of the compound in propylene glycol monomethyl ether acetate was measured as the solubility of the compound in a safe solvent. The solubility was evaluated according to the following criteria utilizing the amount of dissolution in propylene glycol monomethyl ether acetate. The amount of dissolution was measured at 23° C. by precisely weighing the compound into a test tube, adding propylene glycol monomethyl ether acetate so as to attain a predetermined concentration, applying ultrasonic waves for 30 minutes in an ultrasonic cleaner, then visually observing the subsequent state of the fluid, and conducting evaluation on the basis of the concentration of the amount of complete dissolution. • A: 5.0% by mass≤Amount of dissolution • B: 3.0% by mass≤Amount of dissolution<5.0% by mass • C: Amount of dissolution<3.0% by mass (2) Storage Stability and Thin Film Formability of Resist Composition

Compound | Safe solvent solubility test
CCOC(C)Oc1ccc([Te](Cl)(Cl)c2ccc(OC(C)OCC)cc2)cc1 (stereo not drawn) [BHPT-EE, bis(ethoxyethylphenyl)tellurium dichloride] | A (5.0% by mass≤Amount of dissolution)
CCOC(C)Oc1ccc([Te](Cl)(Cl)c2ccc(OC(C)OCC)c(-c3ccccc3)c2)cc1-c1ccccc1 (stereo not drawn) [Ph-TDP-EE] | A (5.0% by mass≤Amount of dissolution)
Oc1ccc([Te]c2ccc(O)c(-c3ccccc3)c2)cc1-c1ccccc1 [Ph-TDP, bis(3-phenyl-4-hydroxyphenyl)tellurium] | A (5.0% by mass≤Amount of dissolution)
CC(C)(C)OC(=O)COc1ccc([Te]c2ccc(OCC(=O)OC(C)(C)C)cc2)cc1 [Ph-TDP-BOC] | A (5.0% by mass≤Amount of dissolution)
CC1(OC(=O)COc2ccc([Te](Cl)(Cl)c3ccc(OCC(=O)OC4(C)C5CC6CC(C5)CC4C6)c(-c4ccccc4)c3)cc2-c2ccccc2)C2CC3CC(C2)CC1C3 (stereo not drawn) [Ph-BHPT-ADBAC] | A (5.0% by mass≤Amount of dissolution)
Oc1ccc([Te]c2ccc(O)cc2)cc1 [TDP, 4,4′-telluriumdiphenol] | A (5.0% by mass≤Amount of dissolution)
CC1(OC(=O)COc2ccc([Te](Cl)(Cl)c3ccc(OCC(=O)OC4(C)C5CC6CC(C5)CC4C6)cc3)cc2)C2CC3CC(C2)CC1C3 (stereo not drawn) [BHPT-ADBAC, bis(4-(2-methyl-2-adamantyloxycarbonylmethoxy)phenyl)tellurium dichloride] | A (5.0% by mass≤Amount of dissolution)
CC1(OC(=O)COc2ccc([Te]c3ccc(OCC(=O)OC4(C)C5CC6CC(C5)CC4C6)c(-c4ccccc4)c3)cc2-c2ccccc2)C2CC3CC(C2)CC1C3 (stereo not drawn) [Ph-TDP-ADBAC] | A (5.0% by mass≤Amount of dissolution)
Oc1ccc([Te](Cl)(Cl)c2ccc(O)c(-c3ccccc3)c2)cc1-c1ccccc1 [Ph-BHPT, bis(3-phenyl-4-hydroxyphenyl)tellurium dichloride] | A (5.0% by mass≤Amount of dissolution)
Oc1ccc([Te](Cl)(Cl)c2ccc(O)cc2)cc1 [BHPT, bis(4-hydroxyphenyl)tellurium dichloride] | A (5.0% by mass≤Amount of dissolution)
CC1(OC(=O)COc2ccc([Te]c3ccc(OCC(=O)OC4(C)C5CC6CC(C5)CC4C6)cc3)cc2)C2CC3CC(C2)CC1C3 (stereo not drawn) [TDP-ADBAC] | A (5.0% by mass≤Amount of dissolution)
CC(C)(C)OC(=O)Oc1ccc([Te](Cl)(Cl)c2ccc(OC(=O)OC(C)(C)C)cc2)cc1 [BHPT-BOC, bis(tert-butoxycarboxyphenyl)tellurium dichloride] | A (5.0% by mass≤Amount of dissolution)
